The results in this text go back to ChEMBL document CHEMBL1909046, “DrugMatrix in vitro pharmacology data”.

In data set [1] the target is Mitogen-activated protein kinase 14 (Homo sapiens, UniProt Q16539). On the set-up: species or system Escherichia coli.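 Also: inhibition of p38alpha enzyme activity in a biochemical kinase assay, with myelin basic protein serving as substrate; in other assays of this panel Not Active means under 50% inhibition at 10 µM.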
Data set [2] is described as follows: DRUGMATRIX: Leukotriene, BLT (LTB4) radioligand binding (ligand: [3H]LTB4). The data set is classed as cell membranes, Membrane. The settings on record: u-937; Not Active = under 50% inhibition at 10 µM.
In data set [3] the target is Delta-type opioid receptor (Homo sapiens, UniProt P41143). The class given is cell membranes, HEK293, Membrane. The following applies: hek293. Also: in other assays of this panel Not Active means under 50% inhibition at 10 µM.
Data set [4] concerns the target T1, Thromboxane-A synthase (Homo sapiens, UniProt P24557).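 Also: enzyme inhibition assay with PGH2 supplied as substrate; in other assays of this panel Not Active means under 50% inhibition at 10 µM.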
T1 sequence (P24557 whole entry): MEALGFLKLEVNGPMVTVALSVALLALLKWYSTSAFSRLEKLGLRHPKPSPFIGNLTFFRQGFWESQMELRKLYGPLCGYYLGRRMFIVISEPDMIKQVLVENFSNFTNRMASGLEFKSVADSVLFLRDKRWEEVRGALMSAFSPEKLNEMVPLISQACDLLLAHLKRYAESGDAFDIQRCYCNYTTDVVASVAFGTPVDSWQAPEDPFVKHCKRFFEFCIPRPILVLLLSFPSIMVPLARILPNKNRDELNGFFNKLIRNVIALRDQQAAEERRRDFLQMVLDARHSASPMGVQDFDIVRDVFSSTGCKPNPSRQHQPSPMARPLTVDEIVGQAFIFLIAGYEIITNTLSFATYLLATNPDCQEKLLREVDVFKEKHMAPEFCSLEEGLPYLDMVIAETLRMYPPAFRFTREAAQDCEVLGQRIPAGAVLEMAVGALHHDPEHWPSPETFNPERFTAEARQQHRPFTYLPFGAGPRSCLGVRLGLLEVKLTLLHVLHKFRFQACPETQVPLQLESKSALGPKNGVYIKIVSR
Description: biochemical. The data set is classed as tissue-based, Platelet. The settings on record: platelet.

Data set [5] has as its target T2, Muscarinic acetylcholine receptor M4 (Homo sapiens, UniProt P08173). Also: in other assays of this panel Not Active means under 50% inhibition at 10 µM.
T2 sequence (P08173 whole entry): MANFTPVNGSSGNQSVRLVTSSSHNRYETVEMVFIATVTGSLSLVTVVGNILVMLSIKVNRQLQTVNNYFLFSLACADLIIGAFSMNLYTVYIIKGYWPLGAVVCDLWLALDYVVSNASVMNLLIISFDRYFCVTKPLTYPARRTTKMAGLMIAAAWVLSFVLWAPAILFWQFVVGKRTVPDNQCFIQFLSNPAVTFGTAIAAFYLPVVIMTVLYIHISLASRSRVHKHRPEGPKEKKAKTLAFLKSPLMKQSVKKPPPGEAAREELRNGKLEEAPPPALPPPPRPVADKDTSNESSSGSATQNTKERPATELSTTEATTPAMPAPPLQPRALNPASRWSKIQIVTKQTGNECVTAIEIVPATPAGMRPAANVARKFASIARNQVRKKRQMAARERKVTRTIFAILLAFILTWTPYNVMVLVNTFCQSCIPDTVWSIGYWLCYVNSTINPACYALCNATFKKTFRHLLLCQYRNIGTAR
The class given is cell membranes, CHO-K1, Membrane. The settings on record: cho-k1.

The target in data set [6] is Cytochrome P450 2C9 (Homo sapiens, UniProt P11712). The following applies: bti-tn-5b1-4. Also: in other assays of this panel Not Active means under 50% inhibition at 10 µM.
The target in data set [7] is T3, Leukotriene C4 synthase (Cavia porcellus, UniProt A6XA80).
T3 sequence (A6XA80 whole entry): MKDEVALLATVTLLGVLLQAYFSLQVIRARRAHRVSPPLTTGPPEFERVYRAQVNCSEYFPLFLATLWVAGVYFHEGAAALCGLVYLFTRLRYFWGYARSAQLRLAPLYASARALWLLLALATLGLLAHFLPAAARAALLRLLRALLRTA
The data set is classed as tissue-based, Lung.

Data set [8] addresses Epidermal growth factor receptor (Homo sapiens, UniProt P00533). The data set is described as follows: DRUGMATRIX: Protein Tyrosine Kinase, EGF Receptor enzyme inhibition (substrate: Poly(Glu:Tyr)). The data set is classed as cell-based, Insect cells. The following applies: Not Active = under 50% inhibition at 10 µM.

Molecules are shown by their SMILES.

The term IC50 denotes the point on the concentration scale where inhibition reaches its midpoint.

Mitogen-activated protein kinase 14, sequence (Q16539 whole entry): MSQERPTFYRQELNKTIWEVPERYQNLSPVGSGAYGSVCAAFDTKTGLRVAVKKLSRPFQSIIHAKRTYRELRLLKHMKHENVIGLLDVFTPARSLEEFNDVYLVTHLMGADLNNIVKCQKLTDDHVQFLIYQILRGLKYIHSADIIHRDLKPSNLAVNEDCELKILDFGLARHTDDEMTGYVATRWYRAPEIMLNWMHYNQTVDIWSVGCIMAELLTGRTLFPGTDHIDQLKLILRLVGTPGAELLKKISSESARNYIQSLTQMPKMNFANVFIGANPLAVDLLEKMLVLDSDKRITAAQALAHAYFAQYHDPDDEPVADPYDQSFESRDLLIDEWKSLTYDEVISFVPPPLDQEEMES
Epidermal growth factor receptor, sequence (P00533 whole entry): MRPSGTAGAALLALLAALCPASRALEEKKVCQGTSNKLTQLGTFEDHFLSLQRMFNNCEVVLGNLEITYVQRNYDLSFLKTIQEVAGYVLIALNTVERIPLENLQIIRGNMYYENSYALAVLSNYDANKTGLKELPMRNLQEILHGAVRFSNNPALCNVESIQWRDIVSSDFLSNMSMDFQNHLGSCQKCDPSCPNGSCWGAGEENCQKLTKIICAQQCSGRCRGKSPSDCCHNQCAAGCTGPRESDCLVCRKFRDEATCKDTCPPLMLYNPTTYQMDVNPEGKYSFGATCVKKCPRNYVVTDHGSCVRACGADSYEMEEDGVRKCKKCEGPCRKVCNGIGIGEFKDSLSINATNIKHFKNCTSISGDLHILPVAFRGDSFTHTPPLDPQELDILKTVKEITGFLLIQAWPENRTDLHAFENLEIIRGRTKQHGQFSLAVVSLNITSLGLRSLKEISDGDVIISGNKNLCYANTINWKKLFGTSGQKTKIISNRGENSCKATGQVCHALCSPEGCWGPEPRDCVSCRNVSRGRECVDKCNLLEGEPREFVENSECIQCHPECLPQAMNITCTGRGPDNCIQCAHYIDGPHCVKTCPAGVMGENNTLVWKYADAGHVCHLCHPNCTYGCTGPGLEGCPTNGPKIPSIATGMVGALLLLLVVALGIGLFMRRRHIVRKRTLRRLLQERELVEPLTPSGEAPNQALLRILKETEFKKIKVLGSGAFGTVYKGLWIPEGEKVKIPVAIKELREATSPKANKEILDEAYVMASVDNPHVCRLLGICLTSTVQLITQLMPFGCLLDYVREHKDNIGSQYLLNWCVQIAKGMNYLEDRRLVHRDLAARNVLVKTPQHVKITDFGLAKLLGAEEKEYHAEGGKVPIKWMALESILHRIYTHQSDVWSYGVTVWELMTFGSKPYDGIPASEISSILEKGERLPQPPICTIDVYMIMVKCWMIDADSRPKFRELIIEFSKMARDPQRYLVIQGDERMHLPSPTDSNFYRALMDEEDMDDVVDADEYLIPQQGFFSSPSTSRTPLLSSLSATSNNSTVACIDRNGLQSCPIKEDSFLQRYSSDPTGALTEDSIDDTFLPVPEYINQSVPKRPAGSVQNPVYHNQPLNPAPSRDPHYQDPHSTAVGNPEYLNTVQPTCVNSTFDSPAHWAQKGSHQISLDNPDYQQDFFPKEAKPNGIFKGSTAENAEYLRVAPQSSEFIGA
Cytochrome P450 2C9, sequence (P11712 whole entry): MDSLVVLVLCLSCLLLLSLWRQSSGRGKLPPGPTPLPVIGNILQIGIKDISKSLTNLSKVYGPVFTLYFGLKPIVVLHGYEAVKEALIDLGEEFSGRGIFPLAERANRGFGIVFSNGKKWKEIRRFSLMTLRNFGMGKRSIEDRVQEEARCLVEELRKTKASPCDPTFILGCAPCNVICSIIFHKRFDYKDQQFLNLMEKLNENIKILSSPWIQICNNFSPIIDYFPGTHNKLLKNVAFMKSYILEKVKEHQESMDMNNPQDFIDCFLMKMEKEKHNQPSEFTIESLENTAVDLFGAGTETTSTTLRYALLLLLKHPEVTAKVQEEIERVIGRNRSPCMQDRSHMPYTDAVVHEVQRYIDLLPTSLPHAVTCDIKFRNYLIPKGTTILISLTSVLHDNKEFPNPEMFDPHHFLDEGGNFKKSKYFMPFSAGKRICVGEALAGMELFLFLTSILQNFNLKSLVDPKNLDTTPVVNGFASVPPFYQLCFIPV
Delta-type opioid receptor, sequence (P41143 whole entry): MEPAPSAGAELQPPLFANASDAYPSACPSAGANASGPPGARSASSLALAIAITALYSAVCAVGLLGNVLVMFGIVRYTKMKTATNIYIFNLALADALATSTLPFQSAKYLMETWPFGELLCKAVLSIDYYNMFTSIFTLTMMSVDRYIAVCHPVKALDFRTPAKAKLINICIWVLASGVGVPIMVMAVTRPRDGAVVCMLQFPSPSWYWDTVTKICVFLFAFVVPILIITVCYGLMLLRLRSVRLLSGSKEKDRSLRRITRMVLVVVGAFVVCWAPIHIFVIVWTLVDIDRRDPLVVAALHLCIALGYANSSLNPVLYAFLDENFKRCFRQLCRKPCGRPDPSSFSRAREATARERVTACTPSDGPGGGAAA

Consider `CCOC(=O)n1ccn(C)c1=S` [CARBIMAZOLE], for which the IC50 result in data set [1], in data set [2], in data set [3], in data set [4], in data set [5] and in data set [6] was “Not Active” throughout. The concentration for half-maximal inhibition (IC50) entry in data set [7] and in data set [8] (insect cells) was “Not Active” in each case. The Ki result in data set [2] and in data set [6] was “Not Active” each time.
As to `Oc1ccccc1O` [CATECHOL], the IC50 entry in data set [1], in data set [2], in data set [3], in data set [4], in data set [5] and in data set [6] was “Not Active” in each case. Further, the half-inhibitory concentration (IC50) result in data set [7] is “Not Active”; in data set [8] (read-out: IC50), 26 µM. Further, the Ki result in data set [2] and in data set [6] was “Not Active” each time.
With `CO[C@@]1(NC(=O)CSCC#N)C(=O)N2C(C(=O)O)=C(CSc3nnnn3C)CS[C@@H]21` [CEFMETAZOLE], the concentration for half-maximal inhibition (IC50) result in data set [1], in data set [2], in data set [3], in data set [4], in data set [5] and in data set [6] was “Not Active” throughout. Also, the IC50 result in data set [7] and in data set [8] (insect cells) was “Not Active” each time. The Ki entry in data set [2] and in data set [6] was “Not Active” each time.
As to `CN(C(=O)CCCOc1ccc2[nH]c(=O)ccc2c1)C1CCCCC1` [CILOSTAMIDE], the half-maximal inhibitory concentration (IC50) result in data set [1], in data set [2], in data set [3], in data set [4], in data set [5] and in data set [6] was “Not Active” in each case. Moreover, the 50% inhibitory concentration (IC50) entry in data set [7] and in data set [8] (insect cells) was “Not Active” each time. Moreover, the Ki result in data set [2] and in data set [6] was “Not Active” in each case.
On to `CC(C)(Oc1ccc(C2CC2(Cl)Cl)cc1)C(=O)O` (stereo not given) [CIPROFIBRATE], for which the IC50 result in data set [1], in data set [2], in data set [3], in data set [4], in data set [5] and in data set [6] was “Not Active” in each case. Also, the 50% inhibitory concentration (IC50) result in data set [7] and in data set [8] (insect cells) was “Not Active” in each case. In addition, the Ki result in data set [2] and in data set [6] was “Not Active” each time.
On to `Nc1nc(Cl)nc2c1ncn2[C@H]1C[C@H](O)[C@@H](CO)O1` [CLADRIBINE], for which the IC50 entry in data set [1], in data set [2], in data set [3], in data set [4], in data set [5] and in data set [6] was “Not Active” in each case. Moreover, the IC50 result in data set [7] and in data set [8] (insect cells) was “Not Active” throughout. The Ki result in data set [2] and in data set [6] was “Not Active” in each case.
For the compound `CC[C@H]1OC(=O)[C@H](C)[C@@H](O[C@H]2C[C@@](C)(OC)[C@@H](O)[C@H](C)O2)[C@H](C)[C@@H](O[C@@H]2O[C@H](C)C[C@H](N(C)C)[C@H]2O)[C@](C)(OC)C[C@@H](C)C(=O)[C@H](C)[C@@H](O)[C@]1(C)O` [CLARITHROMYCIN], the IC50 result in data set [1], in data set [2], in data set [3], in data set [4], in data set [5] and in data set [6] was “Not Active” throughout. Besides, the IC50 entry in data set [7] and in data set [8] (insect cells) was “Not Active” throughout. The Ki result in data set [2] and in data set [6] was “Not Active” throughout.
Regarding `O=C(O)c1cc(=O)c2c(OCC(O)COc3cccc4oc(C(=O)O)cc(=O)c34)cccc2o1` [CROMOLYN], the IC50 entry in data set [1], in data set [2], in data set [3], in data set [4], in data set [5] and in data set [6] was “Not Active” throughout. In addition, the IC50 entry in data set [7] and in data set [8] (insect cells) was “Not Active” each time. Moreover, the Ki result in data set [2] and in data set [6] was “Not Active” in each case.
Take `O=P1(N(CCCl)CCCl)NCCCO1` (stereo not given) [CYCLOPHOSPHAMIDE ANHYDROUS]: the concentration for half-maximal inhibition (IC50) result in data set [1], in data set [2], in data set [3], in data set [4], in data set [5] and in data set [6] was “Not Active” in each case. In addition, the IC50 result in data set [7] and in data set [8] (insect cells) was “Not Active” throughout. The Ki result in data set [2] and in data set [6] was “Not Active” each time.
Consider `CC(=O)O[C@]1(C(C)=O)CC[C@H]2[C@@H]3C=C(Cl)C4=CC(=O)[C@@H]5C[C@@H]5[C@]4(C)[C@H]3CC[C@@]21C` [CYPROTERONE ACETATE], for which the IC50 result in data set [1], in data set [2], in data set [3], in data set [4], in data set [5] and in data set [6] was “Not Active” throughout. Besides, the concentration for half-maximal inhibition (IC50) result in data set [7] and in data set [8] (insect cells) was “Not Active” in each case. The Ki result in data set [2] and in data set [6] was “Not Active” in each case.
On to `Nc1nc(N)nc(NC2CC2)n1` [CYROMAZINE], for which the IC50 result in data set [1], in data set [2], in data set [3], in data set [4], in data set [5] and in data set [6] was “Not Active” each time. Also, the IC50 result in data set [7] and in data set [8] (insect cells) was “Not Active” throughout. Moreover, the Ki result in data set [2] and in data set [6] was “Not Active” each time.
Regarding `CCN[C@@H](C)Cc1cccc(C(F)(F)F)c1` [DEXFENFLURAMINE], the IC50 entry in data set [1], in data set [2], in data set [3], in data set [4], in data set [5] and in data set [6] was “Not Active” each time. The half-maximal inhibitory concentration (IC50) result in data set [7] and in data set [8] (insect cells) was “Not Active” each time. Moreover, the Ki entry in data set [2] and in data set [6] was “Not Active” throughout.
In the case of `C[C@H](C(=O)O)c1cccc(C(=O)c2ccccc2)c1` [DEXKETOPROFEN], the half-maximal inhibitory concentration (IC50) result in data set [1], in data set [2], in data set [3], in data set [4], in data set [5] and in data set [6] was “Not Active” in each case. Further, the IC50 result in data set [7] and in data set [8] (insect cells) was “Not Active” throughout. The Ki entry in data set [2] and in data set [6] was “Not Active” throughout.
With `CN1C[C@H](C(=O)N[C@]2(C)O[C@@]3(O)[C@@H]4CCCN4C(=O)[C@H](Cc4ccccc4)N3C2=O)C[C@@H]2c3cccc4[nH]cc(c34)C[C@H]21` [DIHYDROERGOTAMINE], the 50% inhibitory concentration (IC50) result in data set [1], in data set [2], in data set [3], in data set [4], in data set [5] and in data set [6] was “Not Active” in each case. Further, the IC50 result in data set [7] and in data set [8] (insect cells) was “Not Active” in each case. Besides, the Ki result in data set [2] and in data set [6] was “Not Active” each time.
For `Cc1c(N(C)CS(=O)(=O)[O-])c(=O)n(-c2ccccc2)n1C.[Na+]` [DIPYRONE SODIUM], the IC50 entry in data set [1], in data set [2], in data set [3], in data set [4], in data set [5] and in data set [6] was “Not Active” each time. The IC50 entry in data set [7] and in data set [8] (insect cells) was “Not Active” throughout. In addition, the Ki entry in data set [2] and in data set [6] was “Not Active” throughout.
On to `CC(CCc1ccc(O)cc1)NCCc1ccc(O)c(O)c1` (stereo not given) [DOBUTAMINE], for which the concentration for half-maximal inhibition (IC50) result in data set [1], in data set [2], in data set [3], in data set [4], in data set [5] and in data set [6] was “Not Active” each time. The IC50 entry in data set [7] was “Not Active”; in data set [8] (read-out: IC50) it was 5.55 µM. The Ki entry in data set [2] and in data set [6] was “Not Active” throughout.
